# Laboratory results published in patent US9353100B2, “Macrocyclic serine protease inhibitors, pharmaceutical compositions thereof, and their use for treating HCV infections” (Idenix Pharmaceuticals LLC, priority 2011, dated 2016).
# pEC50, pIC50: −log10 of the molar value. Like-named read-outs stand apart in the source and are kept apart here.
# Columns and labels:
# HCV NS3-NS4A protease 4a = target: T1, HCV NS3-NS4A protease 4a (Hepatitis C virus genotype 4a, UniProt O39929); test: HCV protease assay (FRET peptide), genotype 4a; assay type: biochemical; conditions: genotype 4a protease; 60 min at 30° C.; read-out: IC50 Against HS3/4A 4a
# T1 construct: HCV NS3-NS4A protease, which was produced according to the method of Taremi et al; made in house
# T1 sequence (O39929 1658-1711): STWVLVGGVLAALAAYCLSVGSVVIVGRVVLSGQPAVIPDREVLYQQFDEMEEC
# T1 sequence (O39929 1027-1208): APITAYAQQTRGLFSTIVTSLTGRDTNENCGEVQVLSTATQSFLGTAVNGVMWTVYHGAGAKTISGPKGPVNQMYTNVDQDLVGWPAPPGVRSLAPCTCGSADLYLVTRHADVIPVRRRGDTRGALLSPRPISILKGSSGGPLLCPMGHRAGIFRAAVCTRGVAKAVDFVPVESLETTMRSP
# Experimental: (§1) General procedure: Measurement of the inhibitory effect of compounds on HCV protease activity was performed using the HiLyte Fluor™ TR/QXL™ 610 FRET peptide from AnaSpec, Inc. (San Jose, Calif.) under conditions developed in-house using 2-3 nM HCV NS3-NS4A protease, which was produced according to the method of Taremi et al. (Protein Science, 1998, 7, 2143-2149). The compounds were tested at a variety of concentrations in assay buffer containing a final DMSO concentration of 5%. Reactions were allowed to proceed for 60 min at 30° C. and fluorescence measurements were recorded with a PerkinElmer Victor^3 V 1420 Multilabel Counter. The IC50 values were determined from the percent inhibition versus concentration data using a sigmoidal non-linear regression analysis based on four parameters with XLfit 4.1 software.
# HCV NS3-NS4A protease 5a = target: T2, HCV NS3-NS4A protease 5a (Hepatitis C virus genotype 5a, UniProt O39928); test: HCV protease assay (FRET peptide), genotype 5a; assay type: biochemical; conditions: genotype 5a protease; 60 min at 30° C.; read-out: IC50 Against HS3/4A 5a
# T2 construct: HCV NS3-NS4A protease, which was produced according to the method of Taremi et al; made in house
# T2 sequence (O39928 1659-1712): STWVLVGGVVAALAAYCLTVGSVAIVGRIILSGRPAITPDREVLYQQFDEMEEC
# T2 sequence (O39928 1028-1209): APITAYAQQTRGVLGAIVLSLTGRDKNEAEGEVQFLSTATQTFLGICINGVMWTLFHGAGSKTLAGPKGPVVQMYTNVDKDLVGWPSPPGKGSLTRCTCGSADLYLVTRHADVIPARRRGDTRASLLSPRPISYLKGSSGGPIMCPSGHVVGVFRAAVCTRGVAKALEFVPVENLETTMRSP
# Experimental: as §1
# HCV NS3-NS4A protease 3a = target: T3, HCV NS3-NS4A protease 3a (Hepatitis C virus genotype 3a, UniProt Q81258); test: HCV protease assay (FRET peptide), genotype 3a; assay type: biochemical
# T3 construct: HCV NS3-NS4A protease, which was produced according to the method of Taremi et al; made in house
# T3 sequence (Q81258 1664-1717): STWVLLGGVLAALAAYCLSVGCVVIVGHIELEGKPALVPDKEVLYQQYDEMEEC
# T3 sequence (Q81258 1033-1214): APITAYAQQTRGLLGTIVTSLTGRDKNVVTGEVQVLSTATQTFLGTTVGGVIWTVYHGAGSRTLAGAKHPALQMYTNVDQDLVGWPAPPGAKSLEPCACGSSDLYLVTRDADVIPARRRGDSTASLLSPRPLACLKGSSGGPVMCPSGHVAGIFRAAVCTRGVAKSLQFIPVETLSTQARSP
# Experimental: as §1
# [1] = tested on: HCV genotype 1a H77 strain subgenomic luciferase replicon (H1a-luc) in Huh-7 cells; test: HCV luciferase replicon assay, genotype 1a (H1a-luc); assay type: cell-based; conditions: for FS (1a/1b): EC50 against genotype 1a HCV divided by EC50 against genotype 1b, replicon luciferase assay; for pEC50: Hepatitis C virus, read-out: EC50 Against Relpicon 1a
# Experimental: (§2) General procedure: The HCV luciferase replicon assay measures the ability of a test compound to inhibit HCV replication in cell culture after 3 days of treatment in a human hepatoma cell line (Huh-7) bearing a HCV replicon containing a luciferase-neomycin phosphotransferase fusion gene. The inhibition of HCV replication was measured by quantification of luciferase protein expression. Briefly, Huh-7 cells containing either the HCV genotype 1a H77 strain or genotype 1b Con1 strain subgenomic luciferase replicon (H1a-luc or Zluc, respectively) were grown in DMEM containing glucose, L-glutamine and sodium pyruvate, 10% fetal bovine serum (FBS), 100 IU/mL penicillin, 100 μg/mL streptomycin, 2 mM GlutaMAX, non-essential amino acids and 0.25 (H1a-luc) or 0.5 (Zluc) mg/mL G418. GlutaMAX was obtained from Invitrogen, Corp.; all other media reagents were obtained from Mediatech, Inc. For dose-response testing, the cells were seeded in 96-well plates at 1×10^4 (H1a-luc) or 7.5×10^3 (Zluc) cells/well in a volume of 50 μL and incubated at 37° C./5% CO2. Three hours after plating, 50 μL of ten 5-fold serial dilutions of compound were added, and cell cultures were incubated at 37° C./5% CO2 for 72 hours. In all cases, Huh-7 cells lacking the HCV replicon served as negative control. To assess luciferase expression, the media/compound was removed from the plates and ONE-glo Luciferase assay reagent (Promega) was added to each well. The assay plates were shaken for 3 minutes at room temperature and luciferase activity for each well was measured with a 1 sec read time on the Victor^3V multilabel counter using a 700 nm cut-off filter (Perkin Elmer). EC50 values were calculated from dose response curves from the resulting best-fit equations determined by Microsoft Excel and XLfit 4.1 software.
# HCV NS3-NS4A protease 6a = target: T4, HCV NS3-NS4A protease 6a (Hepatitis C virus genotype 6a, UniProt O39927); test: HCV protease assay (FRET peptide), genotype 6a; assay type: biochemical; conditions: genotype 6a protease; 60 min at 30° C.; read-out: IC50 Against HS3/4A 6a
# T4 construct: HCV NS3-NS4A protease, which was produced according to the method of Taremi et al; made in house
# T4 sequence (O39927 1031-1212): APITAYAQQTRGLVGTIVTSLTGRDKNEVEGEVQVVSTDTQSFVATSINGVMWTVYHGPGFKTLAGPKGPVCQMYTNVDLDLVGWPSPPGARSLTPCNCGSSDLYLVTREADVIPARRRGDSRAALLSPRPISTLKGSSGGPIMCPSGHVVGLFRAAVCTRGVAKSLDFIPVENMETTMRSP
# T4 sequence (O39927 1662-1715): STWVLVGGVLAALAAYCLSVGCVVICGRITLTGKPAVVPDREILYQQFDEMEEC
# Experimental: as §1
# [2] = tested on: HCV genotype 1b Con1 strain subgenomic luciferase replicon (Zluc) in Huh-7 cells; test: HCV luciferase replicon assay, genotype 1b (Zluc); assay type: cell-based; conditions: Hepatitis C virus, read-out: EC50 Against Relpicon 1b
# Experimental: as §2
# [3] = tested on: genotype 1b HCV replicon in Zluc cells; test: Genotype 1b HCV replicon luciferase assay with 10% FCS or 45% human serum; assay type: cell-based; conditions: EC50 in presence of 45% HS divided by EC50 in presence of 10% FCS
# Experimental: as §2
# In Table 1, the values of FS with 45% HS were determined using the genotype 1b HCV replicon luciferase screening assay using Zluc cells, except that activity in the presence of 10% fetal calf serum (FCS) or 45% human serum (HS) was determined in parallel. The fold shift (FS) with 45% HS is the EC50 value in the presence of 45% HS divided by the EC50 value in the presence of 10% FCS. FS (1a/1b) is the EC50 value against genotype 1a HCV divided by the EC50 value against the genotype 1b in the replicon luciferase screening assay.
# HCV NS3-NS4A protease 1a = target: T5, HCV NS3-NS4A protease 1a (Hepatitis C virus genotype 1a, UniProt P27958); test: HCV protease assay (FRET peptide), genotype 1a; assay type: biochemical; conditions: genotype 1a protease; 60 min at 30° C.; read-out: IC50 Against HS3/4A 1a
# T5 construct: HCV NS3-NS4A protease, which was produced according to the method of Taremi et al; made in house
# T5 sequence (P27958 1027-1208): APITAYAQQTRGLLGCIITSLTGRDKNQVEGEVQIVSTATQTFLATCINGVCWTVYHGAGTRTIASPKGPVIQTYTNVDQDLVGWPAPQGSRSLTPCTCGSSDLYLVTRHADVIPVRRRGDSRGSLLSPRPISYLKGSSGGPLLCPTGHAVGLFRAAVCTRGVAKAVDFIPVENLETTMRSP
# T5 sequence (P27958 1658-1711): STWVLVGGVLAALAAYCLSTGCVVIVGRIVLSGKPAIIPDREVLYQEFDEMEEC
# Experimental: as §1
# [4] = Cytotoxicity evaluation, Cell Titer 96 AQueous One Solution; assay type: cell-based, human; conditions: human; Zluc cells, cellular viability
# Experimental: For cytotoxicity evaluation, Zluc cells were treated with compounds as described above and cellular viability was monitored using the Cell Titer 96 AQueous One Solution Cell Proliferation Assay (Promega). Plates were then read at 490 nm in a Victor^3V 1420 multilabel counter (Perkin Elmer) and CC50 concentrations were determined using Microsoft Excel and XLfit 4.1 software.
# HCV NS3-NS4A protease 1b = target: T6, HCV NS3-NS4A protease 1b (Hepatitis C virus genotype 1b, UniProt Q9WMX2); test: HCV protease assay (FRET peptide), genotype 1b; assay type: biochemical
# T6 construct: HCV NS3-NS4A protease, which was produced according to the method of Taremi et al; made in house
# T6 sequence (Q9WMX2 1658-1711): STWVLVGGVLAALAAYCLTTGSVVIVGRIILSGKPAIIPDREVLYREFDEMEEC
# T6 sequence (Q9WMX2 1027-1208): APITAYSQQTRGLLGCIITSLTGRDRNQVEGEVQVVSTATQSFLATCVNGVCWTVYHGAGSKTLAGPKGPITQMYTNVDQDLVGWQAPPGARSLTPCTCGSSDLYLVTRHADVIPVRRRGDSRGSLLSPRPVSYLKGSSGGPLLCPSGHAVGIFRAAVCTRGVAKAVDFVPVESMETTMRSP
# Experimental: as §1
# HCV NS3-NS4A protease 2a = target: T7, HCV NS3-NS4A protease 2a (Hepatitis C virus genotype 2a, UniProt Q99IB8); test: HCV protease assay (FRET peptide), genotype 2a; assay type: biochemical; conditions: genotype 2a protease; 60 min at 30° C.; read-out: IC50 Against HS3/4A 2a
# T7 construct: HCV NS3-NS4A protease, which was produced according to the method of Taremi et al; made in house
# T7 sequence (Q99IB8 1662-1715): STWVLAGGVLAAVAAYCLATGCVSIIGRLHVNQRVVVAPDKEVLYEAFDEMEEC
# T7 sequence (Q99IB8 1031-1212): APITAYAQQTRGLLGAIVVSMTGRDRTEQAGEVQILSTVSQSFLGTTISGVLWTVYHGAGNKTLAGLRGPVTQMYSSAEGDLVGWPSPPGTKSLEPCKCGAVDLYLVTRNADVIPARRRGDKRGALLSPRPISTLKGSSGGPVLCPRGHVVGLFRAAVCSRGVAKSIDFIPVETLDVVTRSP
# Experimental: as §1
# [5] = genotype 1a H77 replicon, Huh-7 (H1a-luc), 72 hours
# [6] = genotype 1b Con1 replicon, Huh-7 (Zluc), 72 hours
Compound,pIC50 (HCV NS3-NS4A protease 4a),pIC50 (HCV NS3-NS4A protease 5a),pIC50 (HCV NS3-NS4A protease 3a),FS (1a/1b) [1],"pEC50 [1, 5]",pIC50 (HCV NS3-NS4A protease 6a),"pEC50 [2, 6]",FS with 45% HS [3],pIC50 (HCV NS3-NS4A protease 1a),CC50 [4] [nM],pIC50 (HCV NS3-NS4A protease 1b),pIC50 (HCV NS3-NS4A protease 2a),"pEC50 ([1]; Huh-7, 72 h)","pEC50 ([2]; Huh-7, 72 h)","pIC50 (HCV NS3-NS4A protease 1b; read-out: IC50 Against HS3/4A 1b, genotype 1b protease, 60 min at 30° C.)"
"COc1ccc2c(O[C@H]3CC[C@H]4C(=O)N(C)CCCC/C=C\[C@@H]5C[C@@]5(C(=O)NS(=O)(=O)C5(C)CC5)NC(=O)[C@@H]4C3)cc(-c3nc(C(C)C)cs3)nc2c1C [Compound A101, (1R,4R,6R,15R,18S)-1-methyl-cyclopropanesulfonic acid {18-[2-(4-isopropyl-thiazol-2-yl)-7-methoxy-8-methyl-quinolin-4-yloxy]-13-methyl-2,14-dioxo-3,13-diaza-tricyclo[13.4.0.0]nonadec-7-ene-4-carbonyl}-amide]",> 8.00,7.00 to 8.00,6.00 to 7.00,6,7.00 to 8.00,> 8.00,> 8.00,>40,> 8.00,> 10000,> 8.00,7.00 to 8.00,,,
CN1CCCC/C=C\[C@@H]2C[C@@]2(C(=O)NS(=O)(=O)C2(C)CC2)NC(=O)[C@@H]2C[C@@H](Oc3nc(-c4ccc(Cl)cc4)sc3-c3ccccc3)CC[C@H]2C1=O [Compound D104],,,,188,,,,,,> 10000,,,< 5.00,7.00 to 8.00,7.00 to 8.00
"COc1ccc2c(O[C@H]3CC[C@H]4C(=O)N(C)CCCC/C=C\[C@@H]5C[C@@]5(C(=O)NS(=O)(=O)C5(C)CC5)NC(=O)[C@@H]4C3)cc(-c3nc(C(F)(F)F)cs3)nc2c1C [Compound 17b, (1R,4R,6R,15R,18S)-1-methyl-cyclopropanesulfonic acid-{18-[7-methoxy-8-methyl-2-(4-trifluoromethyl-thiazol-2-yl)-quinolin-4-yloxy]-13-methyl-2,14-dioxo-3,13-diaza-tricyclo[13.4.0.0]nonadec-7-ene-4-carbonyl}-amide, reference compound]",> 8.00,> 8.00,6.00 to 7.00,6,> 8.00,> 8.00,> 8.00,80,> 8.00,> 10000,> 8.00,> 8.00,,,
"C#Cc1csc(-c2cc(O[C@H]3CC[C@H]4C(=O)N(C)CCCC/C=C\[C@@H]5C[C@@]5(C(=O)NS(=O)(=O)C5(C)CC5)NC(=O)[C@@H]4C3)c3ccc(OC)c(C)c3n2)n1 [Compound 17a, (1R,4R,6R,15R,18S)-1-methyl-cyclopropanesulfonic acid {18-[2-(4-ethynyl-thiazol-2-yl)-7-methoxy-8-methyl-quinolin-4-yloxy]-13-methyl-2,14-dioxo-3,13-diaza-tricyclo[13.4.0.0]nonadec-7-ene-4-carbonyl}-amide, reference compound]",> 8.00,> 8.00,7.00 to 8.00,8,> 8.00,> 8.00,> 8.00,29,> 8.00,> 10000,> 8.00,> 8.00,,,
